Measurements from PubChem BioAssay (NCI).
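1) Cells in 96-well plates. 2) Compound, 48 h, 5 concentrations. 3) Linear interpolation between surrounding doses. 4) Unreached endpoint = highest concentration. GI50 = concentration required for 50% inhibition of growth. Definition used: TGI = concentration required for complete inhibition of growth.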

Assays:
Assay in all cases: NCI-60 cell line screen, 48 h
[1] = test system: 786-0 renal
[2] = test system: A498 renal
[3] = test system: A549 NSCLC
[4] = test system: ACHN renal
[5] = test system: BT-549 breast
[6] = test system: CAKI-1 renal
[7] = test system: CCRF-CEM leukemia
[8] = test system: COLO 205 colon
[9] = test system: DU-145 prostate
[10] = test system: EKVX NSCLC
[11] = test system: HCC-2998 colon
[12] = test system: HCT-116 colon
[13] = test system: HCT-15 colon
[14] = test system: HL-60(TB) leukemia
[15] = test system: HOP-62 NSCLC
[16] = test system: HOP-92 NSCLC
[17] = test system: HS 578T breast
[18] = test system: HT29 colon
[19] = test system: IGROV1 ovarian
[20] = test system: K-562 leukemia
[21] = test system: KM12 colon
[22] = test system: LOX IMVI melanoma
[23] = test system: M14 melanoma
[24] = test system: MALME-3M melanoma
[25] = test system: MCF7 breast
[26] = test system: MDA-MB-231 breast
[27] = test system: MDA-MB-435
[28] = test system: MOLT-4 leukemia
[29] = test system: NCI-H226 lung
[30] = test system: NCI-H23 lung
[31] = test system: NCI-H460 lung
[32] = test system: NCI-H522 lung
[33] = test system: NCI/ADR-RES ovarian
[34] = test system: OVCAR-3 ovarian
[35] = test system: OVCAR-4 ovarian
[36] = test system: OVCAR-5 ovarian
[37] = test system: OVCAR-8 ovarian
[38] = test system: PC-3 prostate
[39] = test system: RPMI-8226 leukemia
[40] = test system: RXF 393 renal
[41] = test system: SF-268 CNS
[42] = test system: SF-295 CNS
[43] = test system: SF-539 CNS
[44] = test system: SK-MEL-2 melanoma
[45] = test system: SK-MEL-28 melanoma
[46] = test system: SK-MEL-5 melanoma
[47] = test system: SK-OV-3 ovarian
[48] = test system: SN12C renal
[49] = test system: SNB-19 CNS
[50] = test system: SNB-75 CNS
[51] = test system: SR leukemia
[52] = test system: SW-620 colon
[53] = test system: T-47D breast
[54] = test system: TK-10 renal
[55] = test system: U251 CNS
[56] = test system: UACC-257 melanoma
[57] = test system: UACC-62 melanoma
[58] = test system: UO-31 renal

With `COc1cc(/C=C/C(=O)c2ccc(Nc3nc(Nc4ccc(F)cc4)nc(Nc4ccc(Cl)cc4)n3)cc2)cc(OC)c1OC` the GI50 [1] was 6.13 µM, the TGI [1] was 17.8 µM and the GI50 [2] was 3.23 µM. For the same compound, the TGI [2] was 13.6 µM, the GI50 [3] was 12.1 µM and the TGI [3] was 99 µM. For the same compound, the GI50 [4] was 5.88 µM, the TGI [4] was 61.1 µM and the GI50 [5] was 8.16 µM. The TGI [5] was 59.3 µM, the GI50 [6] was > 100 µM and the TGI [6] was > 100 µM. It also gave a GI50 [7] of 1090 nM, a TGI [7] of 6.69 µM and a GI50 [8] of 7.1 µM. The TGI [8] was 41.2 µM, the GI50 [9] was 10.6 µM and the TGI [9] was > 65.9 µM. For the same compound, the GI50 [10] was > 24 µM, the TGI [10] was > 100 µM and the GI50 [11] was 804 nM. The TGI [11] was 2300 nM, the GI50 [12] was 3.13 µM and the TGI [12] was 14.2 µM. For the same compound, the GI50 [13] was 2020 nM, the TGI [13] was > 29.4 µM and the GI50 [14] was 523 nM. The TGI [14] was 3.23 µM, the GI50 [15] was 24.6 µM and the TGI [15] was > 73.8 µM. For the same compound, the TGI [16] was 4.75 µM, the GI50 [17] was 2750 nM and the TGI [17] was 11.9 µM. For the same compound, the GI50 [18] was 2810 nM, the TGI [18] was 17.5 µM and the GI50 [19] was 4.66 µM. The TGI [19] was 31.8 µM, the GI50 [20] was 1740 nM and the TGI [20] was 8.19 µM. For the same compound, the GI50 [21] was 3.35 µM, the TGI [21] was 19.9 µM and the GI50 [22] was 1820 nM. The TGI [22] was 4.84 µM, the GI50 [23] was 10.1 µM and the TGI [23] was 43.5 µM. For the same compound, the GI50 [24] was 5.41 µM, the TGI [24] was 13.7 µM and the GI50 [25] was 1870 nM. The TGI [25] was 20.3 µM, the GI50 [26] was 5.77 µM and the TGI [26] was > 37.9 µM. For the same compound, the GI50 [27] was 7.6 µM, the TGI [27] was > 26.4 µM and the GI50 [28] was 1150 nM. It also gave a TGI [28] of 3.6 µM, a GI50 [29] of 3.63 µM and a TGI [29] of 34.4 µM. It also gave a GI50 [30] of 3.99 µM, a TGI [30] of 20.7 µM and a GI50 [31] of 4.3 µM. For the same compound, the TGI [31] was 28 µM, the GI50 [32] was 3.8 µM and the TGI [32] was > 53.9 µM. The GI50 [33] was 7.19 µM, the TGI [33] was > 85.3 µM and the GI50 [34] was 4.14 µM. For the same compound, the TGI [34] was 15.9 µM, the GI50 [35] was 6.75 µM and the TGI [35] was > 100 µM. For the same compound, the GI50 [36] was 12.6 µM, the TGI [36] was 45.5 µM and the GI50 [37] was 940 nM. The TGI [37] was 11.1 µM, the GI50 [38] was 1040 nM and the GI50 [39] was 811 nM. It also gave a TGI [39] of 4.8 µM, a GI50 [40] of 1120 nM and a TGI [40] of 2900 nM. It also gave a GI50 [41] of 9.23 µM, a TGI [41] of 58.1 µM and a GI50 [42] of 12.6 µM. The TGI [42] was > 44.9 µM, the GI50 [43] was 6.54 µM and the TGI [43] was 15.3 µM. The GI50 [44] was 5.51 µM, the TGI [44] was 27 µM and the GI50 [45] was 1820 nM. For the same compound, the TGI [45] was 3.71 µM, the GI50 [46] was 4.16 µM and the TGI [46] was 19 µM. The GI50 [47] was 46.8 µM, the TGI [47] was > 100 µM and the GI50 [48] was 5.69 µM. For the same compound, the TGI [48] was 54.4 µM, the GI50 [49] was 18.9 µM and the TGI [49] was > 100 µM. For the same compound, the GI50 [50] was 3.67 µM, the TGI [50] was 38.7 µM and the GI50 [51] was 1030 nM. For the same compound, the TGI [51] was 3.74 µM, the GI50 [52] was 3.78 µM and the TGI [52] was 17.2 µM. For the same compound, the GI50 [53] was 5.6 µM, the TGI [53] was > 62.2 µM and the GI50 [54] was 19.8 µM. For the same compound, the TGI [54] was 76.4 µM, the GI50 [55] was 3.19 µM and the TGI [55] was > 34.7 µM. It also gave a GI50 [56] of 6.76 µM, a TGI [56] of 22.9 µM and a GI50 [57] of 6.66 µM. The TGI [57] was 23.7 µM, the GI50 [58] was 6.7 µM and the TGI [58] was > 61.8 µM.
